Results from PubChem BioAssay (NCI).
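Each compound was tested at five concentrations against cells in 96-well plates for 48 hours. Abbreviation: GI50, concentration required for 50% inhibition of growth. TGI is the concentration that stops growth completely.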

Experiments:
Assay in all cases: NCI anticancer screen, dose series, 48 h
MALME-3M melanoma = test system: MALME-3M melanoma
SK-MEL-5 melanoma = test system: SK-MEL-5 melanoma
SF-539 CNS = test system: SF-539 CNS
COLO 205 colon = test system: COLO 205 colon
TK-10 renal = test system: TK-10 renal
RXF 393 renal = test system: RXF 393 renal
HOP-62 NSCLC = test system: HOP-62 NSCLC
SK-OV-3 ovarian = test system: SK-OV-3 ovarian
A498 renal = test system: A498 renal
EKVX NSCLC = test system: EKVX NSCLC
SN12C renal = test system: SN12C renal
SNB-19 CNS = test system: SNB-19 CNS
UACC-62 melanoma = test system: UACC-62 melanoma
OVCAR-8 ovarian = test system: OVCAR-8 ovarian
RPMI-8226 leukemia = test system: RPMI-8226 leukemia
NCI-H226 lung = test system: NCI-H226 lung
MDA-MB-435 = test system: MDA-MB-435
OVCAR-3 ovarian = test system: OVCAR-3 ovarian
CCRF-CEM leukemia = test system: CCRF-CEM leukemia
HL-60(TB) leukemia = test system: HL-60(TB) leukemia
BT-549 breast = test system: BT-549 breast
KM12 colon = test system: KM12 colon
HT29 colon = test system: HT29 colon
DU-145 prostate = test system: DU-145 prostate
MDA-MB-231 breast = test system: MDA-MB-231 breast
SNB-75 CNS = test system: SNB-75 CNS
HCT-116 colon = test system: HCT-116 colon
ACHN renal = test system: ACHN renal
786-0 renal = test system: 786-0 renal

`CCC(=O)Nc1cc(Nc2cc(NC3CC3)n3ncc(C#N)c3n2)ccc1C` was tested, and the GI50 (MALME-3M melanoma) was 2.2 µM, the TGI (MALME-3M melanoma) was 69.3 µM and the GI50 (SK-MEL-5 melanoma) was 1.6 µM. For the same molecule, the TGI (SK-MEL-5 melanoma) was 9.15 µM, the GI50 (SF-539 CNS) was 1.81 µM and the TGI (SF-539 CNS) was 46.9 µM. The GI50 (COLO 205 colon) was 0.981 µM, the TGI (COLO 205 colon) was 16.3 µM and the GI50 (TK-10 renal) was 0.987 µM. The TGI (TK-10 renal) was 7.52 µM, the GI50 (RXF 393 renal) was 3.29 µM and the TGI (RXF 393 renal) was 15.5 µM. The GI50 (HOP-62 NSCLC) was 1.84 µM, the TGI (HOP-62 NSCLC) was 25.7 µM and the GI50 (SK-OV-3 ovarian) was 1.6 µM. For the same molecule, the TGI (SK-OV-3 ovarian) was 9.04 µM, the GI50 (A498 renal) was 0.0965 µM and the TGI (A498 renal) was 1.16 µM. It also gave a GI50 (EKVX NSCLC) of 1.16 µM, a TGI (EKVX NSCLC) of 45 µM and a GI50 (SN12C renal) of 3.16 µM. The TGI (SN12C renal) was over 100 µM, the GI50 (SNB-19 CNS) was 1.77 µM and the TGI (SNB-19 CNS) was over 100 µM. The GI50 (UACC-62 melanoma) was 1.22 µM, the TGI (UACC-62 melanoma) was 12.1 µM and the GI50 (OVCAR-8 ovarian) was 3.63 µM. For the same molecule, the TGI (OVCAR-8 ovarian) was over 100 µM, the GI50 (RPMI-8226 leukemia) was 1.77 µM and the TGI (RPMI-8226 leukemia) was 17.6 µM. The GI50 (NCI-H226 lung) was 1.51 µM, the TGI (NCI-H226 lung) was 16.6 µM and the GI50 (MDA-MB-435) was 2.06 µM. For the same molecule, the TGI (MDA-MB-435) was 30.7 µM, the GI50 (OVCAR-3 ovarian) was 1.1 µM and the TGI (OVCAR-3 ovarian) was 14.6 µM. For the same molecule, the GI50 (CCRF-CEM leukemia) was 1.68 µM, the TGI (CCRF-CEM leukemia) was over 100 µM and the GI50 (HL-60(TB) leukemia) was 0.6 µM. It also gave a TGI (HL-60(TB) leukemia) of 12.3 µM, a GI50 (BT-549 breast) of 1.11 µM and a TGI (BT-549 breast) of 7.45 µM. The GI50 (KM12 colon) was 1.81 µM, the TGI (KM12 colon) was 47 µM and the GI50 (HT29 colon) was 2.18 µM. It also gave a TGI (HT29 colon) of over 100 µM, a GI50 (DU-145 prostate) of 3.96 µM and a TGI (DU-145 prostate) of 73.3 µM. It also gave a GI50 (MDA-MB-231 breast) of 1.63 µM, a TGI (MDA-MB-231 breast) of 23.3 µM and a GI50 (SNB-75 CNS) of 0.0521 µM. It also gave a TGI (SNB-75 CNS) of 0.974 µM, a GI50 (HCT-116 colon) of 0.737 µM and a TGI (HCT-116 colon) of 12 µM. For the same molecule, the GI50 (ACHN renal) was 1.67 µM, the TGI (ACHN renal) was 15.6 µM and the GI50 (786-0 renal) was 3.46 µM. It also gave a TGI (786-0 renal) of 43.5 µM.
